Columns and labels:
[1] = Ester stability assay in buffer (RP-HPLC); format: physicochemical; conditions: for percentage of compound peak area present after 16 h of incubation, PBS: PBS buffer pH 7.4, 16 h; for percentage of compound peak area present after 16 h of incubation, PBS / percentage of compound peak area present after 16 h of incubation, Tris: room temperature, 1 mM compound; for hydrolytic stability in buffer (in words): PBS pH 7.4 and Tris pH 8.4, over 16 h; for percentage of compound peak area present after 16 h of incubation, Tris: Tris buffer pH 8.4, 16 h
Procedure: The prodrugs were evaluated for their stability in both PBS buffer at pH 7.4 and Tris buffer at pH 8.4. The compounds were dissolved in DMSO at a concentration of 40 mM and diluted with the respective buffer to a final concentration of 1 mM. Compounds were tested directly (t0) and subsequently every 2 h over a time period of 16 h by HPLC. Compounds were eluted from a Dr. Maisch ReproSil-Pur C18 column (4.6 × 250 mm, 10 μm particle size, Dr. Maisch, Ammerbuch-Entringen, Germany) with the following solvent system at a flow rate of 0.5 mL/min: solvent A, 0.1% trifluoroacetic acid in water/acetonitrile (95:5); solvent B, 0.1% trifluoroacetic acid in water/acetonitrile (5:95). Gradient elution was as follows: 100:0 (A/B) to 0:100 (A/B) over 8 min, 0:100 (A/B) for 1 min, then reversion back to 100:0 (A/B) over 1 min, 100:0 (A/B) for 2 min. The formation of the parent compound was evaluated and normalized by measuring the peak area at 214 nm and comparing it to the initial timepoint.
All prodrugs prepared were first tested for their inhibitory activity against NNMT using a biochemical enzymatic activity assay. […] Both these buffers and pHs have been used in the different biochemical and cellular assays described in this report. Compounds were dissolved in DMSO at a concentration of 40 mM and diluted with the respective buffer to a final concentration of 1 mM. Compound stability was then assessed by RP-HPLC directly (t0) and subsequently every 2 h over a time period of 16 h. […] Even for the rather labile methyl ester 12b, the TML group in 14b results in a decrease in hydrolysis of the methyl ester.

NNMT [2] = target: T1, NNMT (Homo sapiens, UniProt P40261); assay: Cellular MNA in HMEC-1 cells (Figure S1); format: cell-based; parameters: concentrations in endothelial HMEC-1 cells after 24-hour incubation; endogenous in cells; host or cells: HMEC-1 endothelial cells; conditions: 10 µM, 24-hour incubation
T1 sequence (P40261 1-264): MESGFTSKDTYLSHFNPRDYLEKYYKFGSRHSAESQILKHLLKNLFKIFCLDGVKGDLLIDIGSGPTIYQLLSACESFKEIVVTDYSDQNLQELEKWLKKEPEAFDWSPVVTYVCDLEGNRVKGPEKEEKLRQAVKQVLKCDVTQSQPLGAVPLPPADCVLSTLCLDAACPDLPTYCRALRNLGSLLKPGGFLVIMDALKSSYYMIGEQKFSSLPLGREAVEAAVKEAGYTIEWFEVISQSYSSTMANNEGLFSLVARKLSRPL
Procedure: The following are available online at https://www.mdpi.com/article/10.3390/biom11091357/s1, Figure S1: cellular MNA data in HMEc-1 cells treated with 10 µM reference inhibitors or prodrugs; ^1H and ^13C NMR spectra of compounds 3e, 4c–e, 8a, 11b–f, 12b–f, 13a–c, 13e, 14a–f.
Figure S1. 1-methylnicotinamide (MNA) concentrations in endothelial HMEC-1 cells after 24-hour incubation
with 10 µM of reference compounds 5-amino-methylquinolinium (5-MQ), 6-methylamino-nicotinamide (6-
MANA), parent compound GYZ-319 or prodrug compounds 12b-f and 14a-e. […]

pig liver esterase (PLE) = assay: Esterase-mediated hydrolysis to the parent compound (RP-HPLC); format: in vitro ADME
Procedure: The conversion of the prodrugs to the parent compound by esterases was evaluated using pig liver esterase (PLE, 18 U/mg, Sigma-Aldrich, St. Louis, MO, USA) in PBS at pH 7.4. Compounds were dissolved in DMSO at 40 mM, diluted to a final concentration of 2 mM with PBS, and added to an equal volume of a 10 mg/mL solution of PLE in PBS (pH 7.4), resulting in final concentrations of 2.5% DMSO, 1 mM compound, and 5 mg/mL PLE. At different time-points 50 µL aliquots were taken, added to 100 µL acetonitrile to precipitate the proteins, and centrifuged for 5 min at 10,000 rpm. The supernatant was subsequently analyzed by HPLC as described in Section 2.2 above.
The next step was to establish whether compounds 12e and 14e are converted to the parent compound in the presence of an esterase.

[3] = tested on: HSC-2 human oral cancer cell line; assay: MTT cell viability assay, HSC-2; format: cell-based
Procedure: (§1) HSC-2 human oral cancer cell line, T24 human bladder cancer cell line, and A549 human lung cancer line were cultured in DMEM/F12 medium and supplemented with 10% fetal bovine serum and 50 μg/mL gentamicin at 37 °C in a humidified 5% CO2 incubator. For each compound tested, powder was dissolved in DMSO at 100 mM concentration. This stock solution was then diluted in culture medium to final concentration values ranging between 1 µM and 100 µM. For each sample, DMSO was kept constant at 0.1% final concentration. The day before starting treatment, cells were seeded in 96-well plates, at a density of 2000 cells/well. Cells were allowed to attach overnight and then incubated with compounds at different concentrations, or with DMSO only, for 24, 48, and 72 h. All experiments were performed in triplicate.
(§2) Cell proliferation was determined using a colorimetric assay with 3-(4,5-dimethylthiazol-2-yl)-2,5-diphenyl tetrazolium bromide (MTT). The MTT assay measures the conversion of MTT to insoluble formazan by dehydrogenase enzymes of the intact mitochondria of living cells. Cell proliferation was evaluated by measuring the conversion of the tetrazolium salt MTT to formazan crystals upon treatment with compounds or DMSO only for 24, 48, and 72 h. Briefly, cells were incubated for 2 h at 37 °C with 100 µL fresh culture medium containing 5 µL of MTT reagent (5 mg/mL in PBS). The medium was removed and 200 µL isopropanol were added. The amount of formazan crystals formed correlated directly with the number of viable cells. The reaction product was quantified by measuring the absorbance at 540 nm using a plate reader. Experiments were repeated three times. Results were expressed as a percentage of the control (the control equals 100% and corresponds to the absorbance value of each sample at time zero) and presented as mean values ± standard deviation of three independent experiments performed in triplicate.

[4] = tested on: T24 human bladder cancer cell line; assay: MTT cell viability assay, T24; format: cell-based
Procedure: as §1, §2

[5] = tested on: A549 human lung cancer line; assay: MTT cell viability assay, A549; format: cell-based
Procedure: as §1, §2

NNMT [6] = target: T1, NNMT; assay: 1-Methylnicotinamide (MNA) quantification in A549 cells (LC-MS); conditions: A549 lung carcinoma cells; 0.1–100 µM; 24-h treatment (Figure 4)
Procedure: Human lung adenocarcinoma line (A549, ATCC, Manassas, VA, USA) was cultured according to the provider’s indications and seeded in 6-well format. […] After incubation, effluent samples were taken and frozen (−80 °C) for further MNA measurement. Cells also were collected, centrifuged (2 × 500 G/5 min.), and frozen both for the measurement of intracellular MNA and for BCA protein assay.
The quantification of 1-methylnicotinamide (MNA), nicotinamide (NA), nicotinic acid (NicA), 1-methyl-2-pyridone-5-carboxamide (Met-2Pyr), and 1-methyl-4-pyridone-5-carboxamide (Met-4Pyr) was performed by applying ultra-high pressure liquid chromatography coupled to tandem mass spectrometry (UPLC-MS) according to the methodology previously described with minor modifications [35]. A UPLC-MS system comprised of a UPLC Ultimate 3000 (Dionex, Thermo Scientific, Waltham, MA, USA) connected to a TSQ Quantum Ultra mass spectrometer (Thermo Scientific, Waltham, MA, USA) equipped with a heated electrospray ionization interface (HESI-II Probe, Waltham, MA, USA) was used. Chromatographic separation of analytes was carried out on an Aquasil C18 analytical column (4.6 mm × 150 mm, 5 mm; Thermo Scientific, Waltham, MA, USA) under isocratic elution using acetonitrile with 0.1% of formic acid (A) and 5 mM ammonium formate in water (B) as mobile phases delivered at the flow rate of 0.8 mL/min (A:B, 80:20, v/v). The cell pellet was resuspended in 60 µL of deionized water and 50 µL of suspension was transferred to a fresh test tube. An amount of 50 µL of effluent sample was used for the measurement of extracellular MNA. The internal standard (IS) containing MNA-d3 was added to each sample (5 µL) obtaining the final concentration of 500 ng/mL. After the sample mixing, the proteins were precipitated using 100 μL of acidified acetonitrile (0.1% of formic acid), and samples were mixed (10 min), cooled at 4 °C (15 min), and finally centrifuged (15,000× g, 15 min, 4 °C). A clear supernatant was transferred to a chromatographic vial and directly injected (5 µL) into UPLC-MS system. […] The concentration of MNA was calculated based on the calibration curve plotted for the analyte as the relationship between the peak area ratios of analyte/IS to the nominal concentration of the analyte. The concentration of analytes was normalized to milligram of proteins, which was assessed using a Pierce^TM BCA Protein Assay Kit (Thermo Fisher, Waltham, MA, USA) and a Synergy4 multiplate reader (BioTek, Winooski, VT, USA). […]
Using this assay, the levels of MNA produced by NNMT in an A549 lung carcinoma cell line can be quantified by means of a sensitive LC-MS method.

human cancer cell lines = tested on: human cancer cell lines; parameters: method as in PMID 34424711; conditions: range of human cancer cell lines; highest concentration tested 100 µM; cited from earlier work
[7] = Aqueous solubility (observation); format: physicochemical

time to full conversion to the parent compound (pig liver esterase (PLE); 5 mg/mL PLE, PBS pH 7.4, 1 mM compound) [h] | hydrolysis in the absence of PLE (pig liver esterase (PLE); PBS pH 7.4, without PLE) | SMILES | percentage of compound peak area present after 16 h of incubation, PBS [1] [%] | hydrolytic stability in buffer (in words) [1] | percentage of compound peak area present after 16 h of incubation, Tris [1] [%] | cellular activity (MNA concentration) compared to parent compound (NNMT [2]) | effect on cell viability (MTT) ([3]; 100 µM, 24, 48 and 72 h) | effect on cell viability (MTT) ([3]; 1 and 10 µM, 24, 48 and 72 h) | effect on cell viability (MTT) ([4]; 100 µM, 24, 48 and 72 h) | effect on cell viability (MTT) ([4]; 1 and 10 µM, 24, 48 and 72 h) | effect on cell viability (MTT) ([5]; 100 µM, 24, 48 and 72 h) | effect on cell viability (MTT) ([5]; 1 and 10 µM, 24, 48 and 72 h) | effect on cellular MNA levels (NNMT [6]) | antiproliferative effects (human cancer cell lines) | aqueous solubility [7]
– | – | CC(=O)Oc1cc(C)cc(C)c1C(C)(C)CC(=O)N[C@@H](CCN(C/C=C/c1ccc(C#N)cc1)C[C@H]1O[C@@H](n2cnc3c(N)ncnc32)[C@H](O)[C@@H]1O)C(=O)O [Compound 14a, (S)-2-(3-(2-acetoxy-4,6-dimethylphenyl)-3-methylbutanamido)-4-((((2R,3S,4R,5R)-5-(6-amino-9H-purin-9-yl)-3,4-dihydroxytetrahydrofuran-2-yl)methyl)((E)-3-(4-cyanophenyl)allyl)amino)butanoic acid] | 99.10 | most stable | 93.97 | not to improve the cellular activity of the parent compound | – | – | – | – | – | – | – | – | –
≤ 4 | no hydrolysis was observed | CC(C)OC(=O)[C@@H](N)CCN(C/C=C/c1ccc(C#N)cc1)C[C@H]1O[C@@H](n2cnc3c(N)ncnc32)[C@H](O)[C@@H]1O [Compound 12e, Isopropyl-(S)-2-amino-4-((((2R,3S,4R,5R)-5-(6-amino-9H-purin-9-yl)-3,4-dihydroxytetrahydrofuran-2-yl)methyl)((E)-3-(4-cyanophenyl)allyl)amino)butanoate] | 98.59 | most stable | 93.70 | – | effect comparable to GYZ-319 | no effects | effect comparable to GYZ-319 | no effects | effect comparable to GYZ-319 | no effects | clear and significant decrease in MNA levels | – | –
– | – | N#Cc1ccc(/C=C/CN(CC[C@H](N)C(=O)O)C[C@H]2O[C@@H](n3cnc4c(N)ncnc43)[C@H](O)[C@@H]2O)cc1 [GYZ-319] | – | – | – | – | – | no effects | – | no effects | – | no effects | high concentrations of both 6-MANA and GYZ-319 are required to substantially decrease the levels of MNA | only showed significant antiproliferative effects at the highest concentration tested of 100 µM | –
– | – | CC(=O)Oc1cc(C)cc(C)c1C(C)(C)CC(=O)N[C@@H](CCN(C/C=C/c1ccc(C#N)cc1)C[C@H]1O[C@@H](n2cnc3c(N)ncnc32)[C@H](O)[C@@H]1O)C(=O)OCc1ccccc1 [Compound 14f, Benzyl-(S)-2-(3-(2-acetoxy-4,6-dimethylphenyl)-3-methylbutanamido)-4-((((2R,3S,4R,5R)-5-(6-amino-9H-purin-9-yl)-3,4-dihydroxytetrahydrofuran-2-yl)methyl)((E)-3-(4-cyanophenyl)allyl)amino)butanoate] | – | – | – | – | – | – | – | – | – | – | – | – | poor aqueous solubility
